Values joined by “and” are separate entries in the source; they are usually repeats but may differ in a detail not shown here. Equal entries are not always repeated. Where two headings read alike, the source gives them in different places. Each block holds one compound with its values, some of them ahead of it.
Assays:
[1] = system: Plasmodium vinckei (BY strain); assay: In vivo anti-malarial activity against P. vinckei in infected mice, four-day treatment; conditions: for ED50: Plasmodium vinckei, in Mus musculus, 120 h
[2] = system: Plasmodium vinckei (BY strain); conditions: mouse, in vivo
D10 P. falciparum strain = system: D10 P. falciparum strain; design: method as in PMID 21316959; conditions: previously determined, read-out: IC50 (nM) ± SD D10; cited from earlier work
[3] = system: 3D7 strain of P. falciparum; assay: In vitro anti-malarial activity against 3D7 strain ([3H]-hypoxanthine incorporation); type: cell-based, Plasmodium falciparum; conditions: read-out: IC50 (nM) ± SD 3D7
Description: The 3D7 strain of P. falciparum was asexually cultured in human blood in complete medium (RPMI 1640 supplemented with 25 mM Hepes, pH 7.4) and 10% AB+ human serum. Drug effects were measured in microtitre plates on suspensions of asynchronous P. falciparum infected red blood cells (1.5% final haematocrit, 0.6% parasitaemia) according to Desjardins et al.[18]. Drugs, previously dissolved in DMSO, were diluted in culture medium so that the final DMSO concentration never exceeded 0.25%. […] Analyses of dose-effect curves were performed with the Graphpad Prism analytical software. […] Values are the means of at least two independent experiments (different cell cultures, different drug dilution stocks), each performed in duplicates.

Dd2 P. falciparum strain = system: Dd2 P. falciparum strain; design: method as in PMID 21316959; conditions: previously determined, read-out: IC50 (nM) ± SD Dd2; cited from earlier work
[4] = cited from earlier work
[5] = design: method as in PMID 17267300; conditions: cited from earlier work

SMILES: C[C@H]1[C@H](OC(=O)CCC(=O)O)O[C@@H]2O[C@@]3(C)CC[C@H]4[C@H](C)CC[C@@H]1[C@@]24OO3 [Artesunate, reference compound]
ED50 ([1]; ip, read-out: ED50 ip): < 1 mg/kg
ED50 ([1]; po, read-out: ED50 per os): 1.8 mg/kg
Reduction of parasitaemia at day 5 ([1]; ip 1 mg/kg/day, four days): 70%
Parasitaemia remaining after treatment ([1]; ip 30 mg/kg/day, four days): 3%
Survival ([1]; ip 30 mg/kg/day, four days): 50%
Curative dose relative to ED50 ([1]; ip and per os): about 40 times
Decrease of parasitaemia ([1]; per os 4 mg/kg/day, four days): 93%
Dose giving complete cure / clearance of parasitaemia, per os [2]: 80 mg/kg

IC50 ([3]; Plasmodium falciparum, 3D7, 48 h): 20 ± 1.6 nM
SMILES: CCN(CC)CCCC(C)Nc1ccnc2cc(Cl)ccc12 (stereo not shown) [CQ, Chloroquine]
IC50 (D10 P. falciparum strain): 21.5 ± 6.7 nM
IC50 (Dd2 P. falciparum strain): 158 ± 52.7 nM

SMILES: C[C@H]1[C@@H](O)O[C@@H]2O[C@@]3(C)CC[C@H]4[C@H](C)CC[C@@H]1[C@@]24OO3 [DHA, Dihydroartemisinin]
IC50 (D10 P. falciparum strain): 5.1 ± 0.6 nM
Half-life ip [4]: 25 min
IC50 (Dd2 P. falciparum strain): 2.1 ± 0.3 nM
AUC [5]: 8748 ± 2016 ng·min/mL
Clearance rate [5]: 71.4 L/h/kg
Oral volume of distribution [5]: 353.5 ± 194.9 L/kg
Maximum concentration ([5]; dose of 10 mg/kg): 142.2 ± 21.1 ng/mL
Time to maximum concentration ([5]; dose of 10 mg/kg): 48 ± 6 min

SMILES: C[C@@H]1CCC2[C@@H](C)[C@@H](OCCNCCCNc3ccnc4cc(Cl)ccc34)O[C@@H]3O[C@@]4(C)CCC1[C@@]23OO4 (stereo partly shown) [Hybrid 3]
ED50 ([1]; ip, read-out: ED50 ip): < 0.8 mg/kg
ED50 ([1]; po, read-out: ED50 per os): 13 mg/kg
Survival rate ([1]; at the same dosages (15 mg/kg ip, 50 mg/kg per os)): 66%
ED50ip/ ED50per os ratio (oral absorption) ([1]; in DMSO): < 6%
Parasitaemia on day 5, % of the control ([1]; ip 7.5 mg/kg D1-D4): 0.02%
Recrudescence ([1]; ip 7.5 mg/kg D1-D4): Recrudescence occurred
Parasitemia (%) D5 ([1]; ip 7.5 mg/kg D1-D4, Mean ± SEM): 0.02%
Parasitaemia on day 5, % of the control ([1]; ip 15 mg/kg D1-D4): 0.01%
Recrudescence ([1]; ip 15 mg/kg D1-D4): No recrudescence was observed for two of the three mice
Survival beyond day 20 ([1]; ip 15 mg/kg D1-D4): 66%
Mortality (day of death) ([1]; ip 15 mg/kg D1-D4, individual mice): 8
Dose giving complete cure / clearance of parasitaemia, ip ([1]; ip, four days, long-term monitoring): not obtained
Recrudescence ([1]; per os 25 mg/kg D1-D4): Delayed recrudescence
Parasitaemia on day 5, % of the control ([1]; per os 50 mg/kg D1-D4): 0.01%
Recrudescence ([1]; per os 50 mg/kg D1-D4): 2 of the 3 mice showed no recrudescence
Survival beyond day 17 ([1]; per os 50 mg/kg D1-D4): 66%
Dose giving complete cure / clearance of parasitaemia, per os ([1]; per os, four days, long-term monitoring): not obtained
Parasitemia (%) D5 ([1]; po 25 mg/kg D1-D4, Mean ± SEM, 25 mg/kg): 0.02%
Parasitemia (%) D5 ([1]; po 25 mg/kg D1-D4, Mean ± SEM, listed as hybrid 3, 25 mg/kg): less than 10%
Mortality (day of death) ([1]; po 25 mg/kg D1-D4, individual mice): 15
Parasitemia (%) D5 ([1]; po 50 mg/kg D1-D4, Mean ± SEM): 0.01%
Mortality (day of death) ([1]; po 50 mg/kg D1-D4, individual mice): 18
Parasitemia (%) D17 ([1]; po 50 mg/kg D1-D4, individual mice, 50 mg/kg): no visualized parasitaemia and 51%
IC50 (D10 P. falciparum strain): 14.3 ± 2.7 nM
IC50 ([3]; 3D7 strain, 48 h incubation): 5.2 ± 0.7 nM
IC50 ([3]; Plasmodium falciparum, 3D7, 48 h, 3D7 strain, 48 h incubation): 5.15 nM
IC50 (Dd2 P. falciparum strain): 19.8 ± 0.3 nM

Reference: PMC3598976, “Potent in vivo anti-malarial activity and representative snapshot pharmacokinetic evaluation of artemisinin-quinoline hybrids” (Malaria Journal, 2013)
